The test system of the test is C666-1 cells. The test can be described thus: C666-1 cell viability single concentration (50 μM) inhibition rate (Resazurin). The following applies: 50 μM compound, 72 hours, C666-1 cells; for inhibition at 50 µM: Homo sapiens, C6661, 72 h, read-out: C666-1 cell viability single concentration (50 μM) inhibition rate, Ratio* (Inh %). It counts as cell-based. How it is done: In order to assess the effect of the EBNA1 inhibitor at the cellular level, the cell proliferation inhibition rate was tested, and the inhibition rate of inhibitor at a specific concentration on the proliferation of Epstein-Barr virus positive cell line C666-1 was detected.
In the test, 100 μL C666-1 cells were inoculated in a transparent 96-well plate, and each well contained 5×10^3 cells. After the cells were cultured in an incubator with 5% carbon dioxide at 37° C. for 24 hours, 10 μL compound at a concentration of 500 μmol/L was added into the cells, so that the final concentration of the compound was 50 μmol/L. Two replicate wells were set for each compound, the wells treated with DMSO were set as control wells (Ctrl), and the wells with cell culture medium only were set as blank wells (blank), and they were treated in the incubator with carbon dioxide at 37° C. for 72 hours. The cell viability was assessed using a redox indicator Resazurin. Specifically, 10 μL Resazurin at a concentration of 600 umol/L was added into each well, and incubated at 37° C. for 3 hours, and a Tecan microplate reader was used to detect the fluorescence signal at an excitation wavelength of 560 nm and an emission wavelength of 590 nm. The formula inh %=1−(F−Fblank)/(FCtrl−Fblank)×100% (where, F is the fluorescence intensity of the compound-added wells, FCtrl and Fblank are the readings of the control wells and blank wells, respectively) was used to calculate the inhibition rate of the compound on the proliferation of C666-1 cells, so as to assess the activity of the compound on Epstein-Barr virus positive cells.

Structures are written as SMILES. Bounds are passed on as bounds.

`COC(=O)c1cccc(N2CC(Oc3cc(Cl)nc(Cl)c3)C2)c1-n1cccc1` [Compound 91, Methyl 3-(3-((2,6-dichloropyridin-4-yl)oxy)azetidin-1-yl)-2-(1H-pyrrol-1-yl)benzoate]: the inhibition at 50 µM is less than 10%.
On the same count and under the same terms, then `COC(=O)c1cccc(N2CC(NS(=O)(=O)C3CC3)C2)c1-n1cccc1` [Example 182, Methyl 3-(3-(cyclopropylsulfonamido)azetidin-1-yl)-2-(1H-pyrrol-1-yl)benzoate], with 10 to 30%; and `COC(=O)c1cccc(N2CC(Oc3ccc(Oc4ccc(S(C)(=O)=O)cc4)cc3)C2)c1-n1cccc1` [Example 212, Methyl 3-(3-(4-(4-(methylsulfonyl)phenoxy)phenoxy)azetidin-1-yl)-2-(1H-pyrrol-1-yl)benzoate], with 10 to 30%.
`COC(=O)c1cccc(N2CC(Oc3cccc(OC)c3)C2)c1-n1cccc1` [Compound 79, Methyl 3-(3-(3-methoxyphenoxy)azetidin-1-yl)-2-(1H-pyrrol-1-yl)benzoate]: the inhibition at 50 µM was in the range of 10 to 30%.
As to `COC(=O)c1cccc(N2CC(NC(=O)Nc3ccc(OC(F)(F)F)cc3)C2)c1-n1cccc1` [Example 166, Methyl 2-(1H-pyrrol-1-yl)-3-(3-(3-(4-(trifluoromethoxy)phenyl)ureido)azetidin-1-yl)benzoate], the inhibition at 50 µM is greater than 50%.
The same measure, in the same setting: the result for `O=C(O)c1cccc(C23CC(C(O)c4ccc(C(F)(F)F)nc4)(C2)C3)c1` (centres unmarked) [Compound 3, 3-(3-(hydroxyl(6-(trifluoromethyl)pyridin-3-yl)methyl)bicyclo[1.1.1]pentan-1-yl)benzoic acid] reads less than 10%; that for `Nc1c(C(=O)O)cccc1N1CC2(CN(c3cccc(NS(=O)(=O)C4CC4)c3)C2)C1` [Compound 32, 2-amino-3-(6-(3-(cyclopropylsulfonamido)phenyl)-2,6-diazaspiro[3.3]heptan-2-yl)benzoic acid], less than 10%; that for `COC(=O)c1cccc(N2CC(Oc3ccc(NS(=O)(=O)C4CC4)cc3)C2)c1-n1cccc1` [Example 126, Methyl 3-(3-(4-(cyclopropylsulfonamido)phenoxy)azetidin-1-yl)-2-(1H-pyrrol-1-yl)benzoate], greater than 50%.
With `COC(=O)c1cccc(N2CC(NC(=O)Nc3cc(OC)cc(OC)c3)C2)c1-n1cccc1` [Example 170, Methyl 3-(3-(3-(3,5-dimethoxyphenyl)ureido)azetidin-1-yl)-2-(1H-pyrrol-1-yl)benzoate], the inhibition at 50 µM is 10 to 30%.
On to `COC(=O)c1cccc(N2CC(OCc3cscn3)C2)c1-n1cccc1` [Example 140], for which the inhibition at 50 µM lay within 10 to 30%.
In the case of `COC(=O)c1cccc(N2CC(Oc3ccc(COCCNC(C)=O)cc3)C2)c1-n1cccc1` [Example 374], the inhibition at 50 µM lay in the range of 10 to 30%.
Turning to `O=C(Nc1ccc(OC(F)(F)F)cc1)NC1CN(c2cccc(C(=O)O)c2-n2cccc2)C1` [Example 168, 2-(1H-pyrrol-1-yl)-3-(3-(3-(4-(trifluoromethoxy)phenyl)ureido)azetidin-1-yl)benzoic acid], the inhibition at 50 µM was less than 10%.
In the case of `COC(=O)c1cccc(N2CC(Oc3ccc(NC(=S)Nc4ccc(C(F)(F)F)cc4)cc3)C2)c1-n1cccc1` [Example 118, Methyl 2-(1H-pyrrol-1-yl)-3-(3-(4-(3-(4-(trifluoromethyl)phenyl)thioureido)phenoxy)azetidin-1-yl)benzoate], the inhibition at 50 µM is greater than 50%.
On to `COCCOCc1ccc(OC2CN(c3cccc(C(=O)O)c3-n3cccc3)C2)cc1` [Example 371], for which the inhibition at 50 µM is 10 to 30%.
Consider `COC(=O)c1cccc(N2CC(Oc3ccc(Oc4ccc(Cl)cc4)cc3)C2)c1-n1cccc1` [Example 194, Methyl 3-(3-(4-(4-chlorophenoxy)phenoxy)azetidin-1-yl)-2-(1H-pyrrol-1-yl)benzoate], for which the inhibition at 50 µM is less than 10%.
Consider `O=C(O)c1cccc(N2CC(Oc3ccc(CO)cc3)C2)c1-c1ccc2nsnc2c1` [Compound 46], for which the inhibition at 50 µM was less than 10%.
Consider `COC(=O)c1cccc(N2CC(Oc3ccc4cc[nH]c4c3)C2)c1-n1cccc1` [Example 103, Methyl 3-(3-((1H-indol-6-yl)oxy)azetidin-1-yl)-2-(1H-pyrrol-1-yl)benzoate], for which the inhibition at 50 µM lay within 10 to 30%.
On the same count and under the same terms, the result for `COC(=O)c1cccc(N2CC3(CN(c4ccccc4N)C3)C2)c1-n1cccc1` [Compound 19, Methyl 3-(6-(2-aminophenyl)-2,6-diazaspiro[3.3]heptan-2-yl)-2-(1H-pyrrol-1-yl)benzoate] reads greater than 50%.
`O=C([O-])c1cccc(N2CC(Oc3ccc([N+](=O)[O-])cc3)C2)c1-n1cccc1.[Na+]` [Example 116, Sodium 3-(3-(4-nitrophenoxy)azetidin-1-yl)-2-(1H-pyrrol-1-yl)benzoate]: the “C666-1 cell viability single concentration (50 μM) inhibition rate, Ratio* (Inh %)” value was “+ (*Inh %: <10% +)”.
As for `COC(=O)c1cccc(N2CC(Oc3ccc(CO)cc3)C2)c1-c1cccc(Cl)c1` [Compound 53, Methyl 3′-chloro-6-(3-(4-(hydroxymethyl)phenoxy)azetidin-1-yl)-[1,1′-biphenyl]-2-formate], the inhibition at 50 µM was 10 to 30%.
Consider `COC(=O)c1cccc(C#CN(Cc2ccc(C(F)(F)F)cc2)S(=O)(=O)c2ccc(C)cc2)c1-n1cccc1` [Example 346], for which the inhibition at 50 µM fell in the range of 10 to 30%.
Same read-out and setting: then `N#CCCNC(=O)c1cccc(N2CC(Oc3ccc(CO)cc3)C2)c1-n1cccc1` [Example 368, N-(2-cyanoethyl)-3-(3-(4-(hydroxymethyl)phenoxy)azetidin-1-yl)-2-(1H-pyrrol-1-yl)benzamide], with 10 to 30%.
In the case of `COC(=O)c1cccc(N2CC3(C2)CN(c2cccc(C(=O)OC)c2-n2cccc2)C3)c1` [Compound 17, Methyl 3-(6-(3-(methoxycarbonyl)phenyl)-2,6-diazaspiro[3.3]heptan-2-yl)-2-(1H-pyrrol-1-yl)benzoate], the inhibition at 50 µM lay in the range of 10 to 30%.
`O=C(O)c1cccc(N2CC(Oc3ccc(OC(F)(F)F)cc3)C2)c1-n1cccc1` [Compound 84, 2-(1H-pyrrol-1-yl)-3-(3-(4-(trifluoromethoxy)phenoxy)azetidin-1-yl)benzoic acid]: the inhibition at 50 µM is less than 10%.
Turning to `COC(=O)c1cccc(N2CC(Oc3ccc(OCCNC(C)=O)c(OC)c3)C2)c1-n1cccc1` [Example 220, Methyl 3-(3-(4-(2-acetylaminoethoxy)-3-methoxyphenoxy)azetidin-1-yl)-2-(1H-pyrrol-1-yl)benzoate], the inhibition at 50 µM is 10 to 30%.
The same measure, in the same setting: the result for `O=C(O)c1cccc(N2CC(Oc3cccc(Oc4ccccc4)c3)C2)c1-n1cccc1` [Example 223, 3-(3-(3-phenoxyphenoxy)azetidin-1-yl)-2-(1H-pyrrol-1-yl)benzoic acid] reads less than 10%; that for `COC(=O)c1cccc(N2CC(Oc3cccc(CO)c3)C2)c1-n1cccc1` [Example 297, Methyl 3-(3-(3-(hydroxymethyl)phenoxy)azetidin-1-yl)-2-(1H-pyrrol-1-yl)benzoate], 30 to 50%; that for `N#Cc1cc(-c2c(C(=O)O)cccc2N2CC(Oc3ccc(CO)cc3)C2)ccc1F` [Example 281, 3′-cyano-4′-fluoro-6-(3-(4-(hydroxymethyl)phenoxy)azetidin-1-yl)-[1,1′-biphenyl]-2-formic acid], less than 10%.
On the same count and under the same terms, the result for `O=C(Nc1ccc(Cl)cc1)Nc1ccc(OC2CN(c3cccc(C(=O)O)c3-n3cccc3)C2)cc1` [Example 129, 3-(3-(4-(3-(4-chlorophenyl)ureido)phenoxy)azetidin-1-yl)-2-(1H-pyrrol-1-yl)benzoic acid] reads less than 10%; that for `N#Cc1ccc(Oc2ccc(OC3CN(c4cccc(C(=O)O)c4-n4cccc4)C3)cc2)cc1` [Example 211, 3-(3-(4-(4-cyanophenoxy)phenoxy)azetidin-1-yl)-2-(1H-pyrrol-1-yl)benzoic acid], less than 10%.
Turning to `COCCOCc1ccc(OC2CN(c3cccc(C(=O)O)c3-n3cccc3)C2)cc1OCCOC` [Example 367, 3-(3-(3-(2-methoxyethoxy)-4-((2-methoxyethoxy)methyl)phenoxy)azetidin-1-yl)-2-(1H-pyrrol-1-yl)benzoic acid], the inhibition at 50 µM was less than 10%.
Still for that read-out and setting: then `COC(=O)c1cccc(N2CC3(CN(c4cccc([N+](=O)[O-])c4)C3)C2)c1[N+](=O)[O-]` [Compound 25, Methyl 3-(6-(3-nitrophenyl)-2,6-diazaspiro[3.3]heptan-2-yl)-2-nitrobenzoate], with 10 to 30%; and `COC(=O)c1cccc(N2CC(Oc3ccc(CO)cc3)C2)c1-n1cccn1` [Compound 69, Methyl 3-(3-(4-(hydroxymethyl)phenoxy)azetidin-1-yl)-2-(1H-pyrazol-1-yl)benzoate], with 10 to 30%.
Turning to `COC(=O)c1cccc(N2CC(Oc3ccc(Sc4ccccc4)cc3)C2)c1-n1cccc1` [Example 208, Methyl 3-(3-(4-(thiophenyl)phenoxy)azetidin-1-yl)-2-(1H-pyrrol-1-yl)benzoate], the inhibition at 50 µM was less than 10%.
Take `COC(=O)c1cccc(N2CC(Oc3ccc(COC4CCOCC4)cc3)C2)c1-n1cccc1` [Example 113, Methyl 2-(1H-pyrrol-1-yl)-3-(3-(4-(((tetrahydro-2H-pyran-4-yl)oxy)methyl)phenoxy)azetidin-1-yl)benzoate]: the inhibition at 50 µM is greater than 50%.

Values taken from US20230157996A1, “SMALL-MOLECULE INHIBITOR TARGETING EB VIRUS NUCLEAR ANTIGEN PROTEIN, PREPARATION METHOD AND USE THEREOF” (priority 2020, published 2023).
